Results: article PMC3317675 (International Journal of Molecular Sciences, 2012)

Legend:
mGAT3 [1] = molecular target: T1, mGAT3 (Mus musculus, UniProt P31650); test: [3H]GABA uptake inhibition, stable CHO cells; format: cell-based; parameters: gene Slc6a11; RIKEN FANTOM cDNA in pcDNA3; no tag mentioned
T1 sequence (P31650 1-627): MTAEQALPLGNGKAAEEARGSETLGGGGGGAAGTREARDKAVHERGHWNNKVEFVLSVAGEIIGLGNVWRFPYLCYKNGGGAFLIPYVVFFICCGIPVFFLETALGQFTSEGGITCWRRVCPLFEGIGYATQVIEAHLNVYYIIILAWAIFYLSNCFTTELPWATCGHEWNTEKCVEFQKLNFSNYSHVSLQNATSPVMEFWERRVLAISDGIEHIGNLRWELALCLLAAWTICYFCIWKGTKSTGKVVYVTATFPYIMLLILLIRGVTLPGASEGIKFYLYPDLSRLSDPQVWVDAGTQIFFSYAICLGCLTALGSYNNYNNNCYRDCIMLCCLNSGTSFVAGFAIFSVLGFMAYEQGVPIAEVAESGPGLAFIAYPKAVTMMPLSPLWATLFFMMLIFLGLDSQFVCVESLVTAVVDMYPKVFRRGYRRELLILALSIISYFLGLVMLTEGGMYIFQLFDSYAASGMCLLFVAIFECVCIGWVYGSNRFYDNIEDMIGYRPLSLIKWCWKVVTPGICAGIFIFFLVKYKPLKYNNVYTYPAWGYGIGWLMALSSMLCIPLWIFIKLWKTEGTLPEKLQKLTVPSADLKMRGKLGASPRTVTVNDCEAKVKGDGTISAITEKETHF

mGAT2 [2] = molecular target: T2, mGAT2 (Mus musculus, UniProt P31649); test: [3H]GABA uptake inhibition, stable CHO cells; format: cell-based; parameters: gene Slc6a13; RIKEN FANTOM cDNA in pcDNA3; no tag mentioned
T2 sequence (P31649 1-602): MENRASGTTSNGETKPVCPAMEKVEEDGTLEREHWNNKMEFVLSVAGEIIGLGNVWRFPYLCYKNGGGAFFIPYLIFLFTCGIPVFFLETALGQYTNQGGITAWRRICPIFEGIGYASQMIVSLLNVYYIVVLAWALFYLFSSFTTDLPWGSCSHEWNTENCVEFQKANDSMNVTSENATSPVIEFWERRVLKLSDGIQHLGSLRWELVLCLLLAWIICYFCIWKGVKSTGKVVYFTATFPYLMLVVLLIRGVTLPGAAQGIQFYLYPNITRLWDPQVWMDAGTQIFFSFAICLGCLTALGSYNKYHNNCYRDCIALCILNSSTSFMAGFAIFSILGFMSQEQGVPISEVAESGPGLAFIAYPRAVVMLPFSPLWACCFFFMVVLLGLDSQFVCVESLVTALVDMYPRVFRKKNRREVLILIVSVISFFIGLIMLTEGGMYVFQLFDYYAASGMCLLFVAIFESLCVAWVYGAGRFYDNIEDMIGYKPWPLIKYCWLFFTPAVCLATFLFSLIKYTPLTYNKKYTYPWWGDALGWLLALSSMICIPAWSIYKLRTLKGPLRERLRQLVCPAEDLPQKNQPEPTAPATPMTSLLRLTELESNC

mGAT1 [3] = molecular target: T3, mGAT1 (Mus musculus, UniProt P31648); test: [3H]GABA uptake inhibition, stable CHO cells; format: cell-based; parameters: gene Slc6a1; full-length ORF in pcDNA3; no tag mentioned
rSERT = molecular target: T4, rSERT (Rattus norvegicus, UniProt P31652); test: [3H]5-HT uptake inhibition, stable CHO cells; format: cell-based
T4 construct: gene Slc6a4; previously cloned cDNA; no tag mentioned

mGAT3 [4] = molecular target: T1, mGAT3; test: cell-based; parameters: gene Slc6a11
From the text: (§1) Those were designated CHO/mGAT1, CHO/mGAT2, CHO/mGAT3 and CHO/mBGT1. […] For uptake assays in cell lines stably expressing mouse GATs, CHO cells were transfected with cDNA using FuGENE6 transfection reagent according to the manufacturer’s directions, and subsequently cultured in the medium containing G418 to select positive clones.

mGAT1 [5] = molecular target: T3, mGAT1; test: cell-based; parameters: gene Slc6a1
From the text: as §1

mGAT2 [6] = molecular target: T2, mGAT2; test: cell-based; parameters: gene Slc6a13
From the text: as §1

T4 sequence (P31652 whole entry): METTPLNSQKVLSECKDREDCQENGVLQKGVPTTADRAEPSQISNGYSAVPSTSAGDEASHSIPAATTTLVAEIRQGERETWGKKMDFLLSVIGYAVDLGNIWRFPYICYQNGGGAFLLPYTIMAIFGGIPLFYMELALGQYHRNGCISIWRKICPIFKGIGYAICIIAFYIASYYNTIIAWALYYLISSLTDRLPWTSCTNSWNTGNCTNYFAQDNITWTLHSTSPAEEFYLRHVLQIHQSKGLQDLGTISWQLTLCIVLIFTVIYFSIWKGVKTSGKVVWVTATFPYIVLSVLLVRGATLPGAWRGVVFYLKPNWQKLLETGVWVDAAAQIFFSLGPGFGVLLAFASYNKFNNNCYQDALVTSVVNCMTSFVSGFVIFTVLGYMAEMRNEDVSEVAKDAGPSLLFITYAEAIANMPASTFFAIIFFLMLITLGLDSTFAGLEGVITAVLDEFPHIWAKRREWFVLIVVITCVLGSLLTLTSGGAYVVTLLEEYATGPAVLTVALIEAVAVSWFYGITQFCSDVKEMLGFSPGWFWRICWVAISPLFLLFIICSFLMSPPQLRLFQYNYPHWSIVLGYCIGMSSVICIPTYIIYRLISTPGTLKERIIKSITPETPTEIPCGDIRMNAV

Row | Compound | IC50 (mGAT3 [1]) [µM] | IC50 (mGAT2 [2]) [µM] | IC50 (mGAT1 [3]) [µM] | IC50 (rSERT) [µM] | IC50 (mGAT3 [4]) [µM] | IC50 (mGAT1 [5]) [µM] | IC50 (mGAT2 [6]) [µM]
1 | CN(C)CCC=C1c2ccccc2CCc2ccccc21 [Amitriptyline] | 61.5 | 45.8 | 101 ± 11.7 | – | – | – | –
2 | CNCCCN1c2ccccc2CCc2ccccc21 [Desipramine] | 80.3 | 123 | 268 ± 36.7 | – | – | – | –
3 | CN(C)CCCN1c2ccccc2CCc2ccccc21 [Imipramine] | 108 | 106 | 223 ± 58.5 | – | – | – | –
4 | CC(CN(C)C)CN1c2ccccc2CCc2ccccc21 (stereo not shown) [Trimipramine] | 64.6 | 85.6 | 181 ± 72.9 | 5.89 | – | – | –
5 | CNCCC=C1c2ccccc2CCc2ccccc21 [Nortriptyline] | 74.1 | 87.1 | 136 ± 21.9 | – | – | – | –
6 | NCCC(=O)O [β-Alanine] | – | – | – | – | 18 | > 300 | 25
7 | CNCCCC1c2ccccc2C=Cc2ccccc21 [Protriptyline] | 113 | 77.2 | 167 ± 22.1 | – | – | – | –
8 | C[N+](C)(C)CC(=O)O [Betaine] | – | – | – | – | > 10000 | > 10000 | > 10000
